Results published in patent publication US20240000927A1, “IMMUNOMODULATORY AGENT” (THE QUEEN'S UNIVERSITY OF BELFAST, priority 2020, published 2024).

Tests used:
[1] = target: T1, Toll-like receptor (TLR) 4 (Mus musculus, UniProt Q9QUK6); settings: reported, Ii et al. 2006; cited from earlier work
T1 sequence (Q9QUK6 26-835): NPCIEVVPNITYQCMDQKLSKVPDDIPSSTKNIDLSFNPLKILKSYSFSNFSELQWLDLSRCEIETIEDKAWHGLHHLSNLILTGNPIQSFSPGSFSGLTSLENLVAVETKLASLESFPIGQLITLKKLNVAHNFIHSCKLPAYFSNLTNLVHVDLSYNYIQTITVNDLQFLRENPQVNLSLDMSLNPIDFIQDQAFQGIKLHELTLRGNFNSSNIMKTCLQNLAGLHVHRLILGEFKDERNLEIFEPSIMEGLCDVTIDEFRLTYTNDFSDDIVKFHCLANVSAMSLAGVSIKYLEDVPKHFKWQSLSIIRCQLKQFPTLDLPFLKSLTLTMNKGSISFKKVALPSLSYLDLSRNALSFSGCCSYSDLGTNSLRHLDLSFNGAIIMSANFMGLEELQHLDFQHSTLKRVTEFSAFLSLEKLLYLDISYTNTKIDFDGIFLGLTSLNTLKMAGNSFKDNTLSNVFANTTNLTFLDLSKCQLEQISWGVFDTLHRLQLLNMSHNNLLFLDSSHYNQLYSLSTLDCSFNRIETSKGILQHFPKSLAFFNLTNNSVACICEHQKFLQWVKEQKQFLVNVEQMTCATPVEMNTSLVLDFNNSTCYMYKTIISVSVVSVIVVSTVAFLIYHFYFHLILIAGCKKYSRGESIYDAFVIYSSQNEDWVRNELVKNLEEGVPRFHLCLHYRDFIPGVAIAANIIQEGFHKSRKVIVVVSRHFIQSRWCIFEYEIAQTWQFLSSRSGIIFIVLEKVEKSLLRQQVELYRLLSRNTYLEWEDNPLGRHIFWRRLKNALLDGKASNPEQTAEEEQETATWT

RAW 264.7 macrophages = test: Nitrite concentration (Griess reaction) in macrophage culture medium; format: cell-based, murine; settings: LPS 1 ng/ml, stated to be the same as extracts at 1 mg/ml
Source text: Induction of iNOS results in the endogenous production of nitric oxide (NO) by conversion of L-arginine to citrulline (Murad 1998). NO is a key facilitator of inflammatory responses, and is only produced by macrophages activated through the classical pathway (ligation of TLRs) (Mosser 2003). Due to the highly reactive nature of NO, its formation is commonly indirectly measured (i.e. by measuring nitrite (NO2-), one of two primary stable non-volatile breakdown products of NO).
Nitrite (NO2—) concentration in culture medium was measured using the Griess reaction method, in accordance with the protocol provided by the manufacturer (Life Technologies, Paisley). […] The concentration of NO2- was measured colourimetrically at λ550 nm using a Tecan Safire2 microplate reader.
A standard solution of 0.1M sodium nitrite (NaNO2) was used to make serial dilutions in the range of 100-1 μM to quantitate NO2- concentrations by means of a standard curve.
To determine the amount of produced NO2— produced, 50 μl of medium from each well of the 96-well microtitre plate was aspirated post incubation and transferred to a fresh 96-well microtiter plate to which a solution of 50 μl sulfanilic acid 1% (10 mg/ml) in 5% phosphoric acid was added and incubated for 10 minutes at room temperature. […] The concentration of NO2— was measured colourimetrically (λ550 nm) using a Tecan Safire2 microplate reader. […]

[2] = target: T1, Toll-like receptor (TLR) 4; test: TLR 4 inhibition assay with TAK-242 (nitrite production by macrophages); format: cell-based, murine; set-up: endogenous in cells; host or cells: RAW 264.7 murine macrophages; settings: TAK-242 10 nM, 18 h, RAW 264.7
Source text: TAK-242 is a small molecule which is a specific inhibitor of Toll-like receptor (TLR) 4, which inhibits the production of pro-inflammatory mediators by binding to Cys747 in the intracellular domain of TLR4. This prevents interactions between TLR4 and its adaptor molecules Toll/IL-1 receptor domain containing adaptor protein (TIRAP) and Toll/IL-1 receptor domain-containing adaptor protein inducing interferon-β-related adaptor molecule (TRAM). Consequently, LPS-induced signal transduction is inhibited, including downstream signalling transduction that results in the production of pro-inflammatory cytokines (Matsunaga et al. 2011). […] RAW 264.7 were prepared as described in Example 3 and subsequently seeded at a density of 1×10^5 cells/well in two 96-well microtitre plates. S. cordifolia fractions (100 l) SCAF 0 and SCAF 5 (1-0.001 mg/ml) were added in triplicate to one of the plates. The positive control was 1 ng/ml LPS and the negative control was 100 μl DMEM medium. The remaining plate was arranged in an identical manner. However, the fractions SCAF 0 and SCAF 5 and positive (LPS 1 ng/ml) and negative (medium) all contained TAK-242 at a concentration 10 nM. Plates were incubated for 18 h in an incubator at 5% CO2 at 37° C. After incubation, nitrite concentrations were determined using the Griess reagent.

Compound | IC50 [1] [nM] | levels of NO2− (RAW 264.7 macrophages) [µmol/mL] | activation of macrophages (nitrite production) in the presence of TAK-242 [2]
CCOC(=O)C1=CCCC[C@H]1S(=O)(=O)Nc1ccc(F)cc1Cl [TAK-242] | 1.1 to 11 | – | –
Lipopolysaccharide [LPS] | – | 60 to 80 | inactivated
